Reference: patent US20070219214A1, “Dual NK2/NK3-antagonists, pharmaceutical compositions comprising them, and processes for their preparation” (Solvay pharmaceuticals GmbH, priority 2006, published 2007)
Like-named read-outs stand apart in the source and are kept apart here.

How the values were obtained:
[1] = target: T1, human NK2-receptor (Homo sapiens, UniProt P21452); assay: Functional cellular test, Ca2+ measurements using FLIPR for NK2 activity; details: for pA2 data for NK2: CHO cells, human NK2, FLIPR Ca2+, agonist NKA 10^-7 M;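 on all read-outs here: CHO cells stably expressing the human receptor, loaded with a calcium dye, antagonist inhibition of ligand-evoked intracellular calcium rise read as peak fluorescence change on FLIPR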
T1 sequence (P21452 1-398): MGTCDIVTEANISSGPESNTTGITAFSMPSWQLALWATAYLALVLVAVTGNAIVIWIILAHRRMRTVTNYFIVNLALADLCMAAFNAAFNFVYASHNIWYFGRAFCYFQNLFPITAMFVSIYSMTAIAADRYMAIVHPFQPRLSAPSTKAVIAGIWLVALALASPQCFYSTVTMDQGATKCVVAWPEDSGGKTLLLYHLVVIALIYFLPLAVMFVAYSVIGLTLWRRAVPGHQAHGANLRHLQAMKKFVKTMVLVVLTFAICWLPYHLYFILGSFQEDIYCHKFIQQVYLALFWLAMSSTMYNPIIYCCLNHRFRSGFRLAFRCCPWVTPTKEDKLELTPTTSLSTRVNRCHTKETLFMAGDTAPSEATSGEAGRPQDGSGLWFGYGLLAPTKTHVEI
Description: Functional Cellular Tests of the NK1-, NK2- and NK3-Antagonism
Functional cellular tests of the antagonistic effect of the compounds of the present invention on the human tachykinin receptors were performed in CHO cells expressing the recombinant human NK1, NK2 or NK3-receptor. In these tests the inhibition of ligand-induced increase in mobilization of intracellular calcium and inhibition of ligand-induced phosphorylation of mitogen activated protein kinase (MAPK) were determined, which can be used as a measure of functional activity of tachykinin-antagonists. Additionally, the antagonistic properties of reference compounds on the different tachykinin receptors were characterized for comparison.
The effects of test compounds were assessed using Chinese hamster ovary (CHO) fibroblast cells, stably expressing cloned human NK1, NK2 or NK3-receptors. The NK receptor is coupled to Gq. The activation of the Gq protein by ligand binding to the receptor leads to a mobilization of intracellular calcium and phosphorylation of MAPK. Both systems were used to determine functional effects of the test compounds.
Ca^2+ Measurements Using FLIPR for NK1 and NK2 Activity
For tests, cells were seeded 24 hours prior to the experiment into black 96-well microplates. The cell density was 2.2×10^4 cells/well. All steps were done under sterile conditions. In order to observe changes in intracellular calcium levels, cells were loaded with a calcium-sensitive dye. This dye (FLUO-4, from Molecular Probes) excites at 488 nm, and emits in the 500 nm to 560 nm range, only if a complex with calcium is formed. For the dye loading the growth-medium was aspirated out of the well without disturbing the confluent cell layer and 100 μl loading medium (HBSS, 4 μM FLUO-4, 0.005% (w/v) pluronic acid, 2.5 mM probenecid, 20 mM HEPES, pH 7.4) was dispensed into each well using an automatic pipettor system (Multidrop, Labsystems). Pluronic acid was added to increase dye solubility and dye uptake into the cells, whereas probenecid, an anion exchange inhibitor, was added to the loading medium to increase dye retention in the cells. The cells were incubated in a 5% CO2 incubator at 37° C. for 40 minutes. After dye loading, the cells were washed three times with wash-buffer (HBSS, 2.5 mM probenecid, 20 mM HEPES, pH 7.4) to reduce basal fluorescence. In the last washing step the buffer was aspirated and replaced with 100 μl washing buffer. […] The FLIPR setup parameters were set to 0.4 sec exposure length, filter 1, 50 μl fluid addition, pipettor height at 125 μl, dispense speed 40 μl/sec without mixing. Maximal fluorescence changes were obtained using the statistic function of the FLIPR software, and data plotted using GraphPad Prism 4. All points were expressed as a percentage inhibition of the control agonist. IC50 values were determined using sigmoidal dose-response curve fitting. Antagonist potencies (pA2) values were calculated using equation: pA2=−log(IC50/(1+[L]/EC50)),

[2] = target: T2, NK3-receptor (Cavia porcellus, UniProt P30098); assay: NK-3-receptor-antagonistic effectiveness in vivo, senktide-induced hypertension in guinea pigs; details: guinea pig; for ID50 (iv), inhibition of blood pressure / ID50 (po), inhibition of blood pressure: senktide 0.4 μg/kg i.v.; for ID50 (iv), inhibition of blood pressure: intravenous administration; for ID50 (po), inhibition of blood pressure: oral administration
T2 construct: from tissue; host or cells: whole animal (Dunkin Hartley guinea pigs), in vivo
T2 sequence (P30098 1-440): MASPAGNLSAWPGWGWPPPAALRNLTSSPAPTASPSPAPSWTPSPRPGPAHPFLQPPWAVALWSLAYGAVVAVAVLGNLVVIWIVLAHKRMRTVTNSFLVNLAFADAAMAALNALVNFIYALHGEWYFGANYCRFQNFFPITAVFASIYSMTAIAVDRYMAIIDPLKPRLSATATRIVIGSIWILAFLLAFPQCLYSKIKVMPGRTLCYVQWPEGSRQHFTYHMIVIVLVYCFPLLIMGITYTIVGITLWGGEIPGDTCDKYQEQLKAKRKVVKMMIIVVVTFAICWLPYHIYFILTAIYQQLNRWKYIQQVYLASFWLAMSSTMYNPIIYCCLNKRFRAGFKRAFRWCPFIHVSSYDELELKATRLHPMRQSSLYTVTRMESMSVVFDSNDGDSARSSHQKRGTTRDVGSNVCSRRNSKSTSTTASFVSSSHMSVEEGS
Description: 9. Determination of the NK-3-Receptor-Antagonistic Effectiveness of the Test Substances In Vivo (Reduction of Blood Pressure in Guinea-Pigs with Senktide-Induced Hypertension)
NK3 agonists increase the blood pressure in guinea pigs. The senktide-induced hypertension can be antagonized by administering compounds with NK3-antagonistic properties. Measuring the level of hypertension is indicative of the degree of activity of the test compounds. The effect of the tested compound is assessed in the same experiment to exclude an additional hypertensional effect.
Male Dunkin Hartley guinea pigs with a body weight between 450 and 550 g were anesthetized with Ketamin (200 mg/kg i.m.; Aescoket 10%) and the left carotid artery and left jugular vein were cannulated for blood pressure measurement and drug application, respectively. The animals were allowed to breathe spontaneously. Blood pressure was measured with a strain gauge transducer connected to a computer via an amplifier.
For oral administration, vehicle (1% methylcellulose) or test compound was administered in a dose volume of 5 ml/kg. Forty five minutes thereafter, anesthesia was induced and the carotid artery and jugular vein were cannulated.
For intravenous administration, the test compounds were dissolved in 40% hydroxypropyl-β-cyclodextrine (HPCD) containing 10% DMSO, diluted with saline and administered intravenously in cumulative dose ranges. A vehicle group of animals received the corresponding HPCD/DMSO solutions instead of the test compound. For oral administration, the test compound was suspended in 1% methylcellulose. A vehicle group of animals received the corresponding […] of the test compound.

[3] = target: T3, human NK3 receptor (Homo sapiens, UniProt P29371); assay: Binding potency of the test substances to NK3-receptors in vitro ([3H]-SR 142801 displacement); parameters: expressed in transfected cells; host or cells: CHO cells (membrane preparation); details: human NK3-receptor in CHO cell membranes, [3H]-SR 142801 (osanetant), average of at least three measurements; for Ki: read-out: pKi, binding potency to NK3-receptors (converted)
T3 sequence (P29371 1-465): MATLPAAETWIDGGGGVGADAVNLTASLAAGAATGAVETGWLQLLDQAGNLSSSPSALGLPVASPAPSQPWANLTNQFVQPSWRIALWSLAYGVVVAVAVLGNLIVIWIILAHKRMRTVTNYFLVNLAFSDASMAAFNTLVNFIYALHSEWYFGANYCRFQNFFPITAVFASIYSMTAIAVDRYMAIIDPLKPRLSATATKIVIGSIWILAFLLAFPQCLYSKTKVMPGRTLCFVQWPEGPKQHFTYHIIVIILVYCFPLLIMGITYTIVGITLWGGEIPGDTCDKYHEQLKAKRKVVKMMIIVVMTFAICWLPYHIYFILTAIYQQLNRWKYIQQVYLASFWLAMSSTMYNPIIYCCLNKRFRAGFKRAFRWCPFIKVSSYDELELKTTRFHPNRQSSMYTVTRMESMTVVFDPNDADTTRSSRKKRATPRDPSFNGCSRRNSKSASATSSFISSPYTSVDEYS
Summary of the method: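 [3H]-osanetant displacement on membranes from CHO cells stably expressing the human receptor, with bound ligand separated by filtration and counted by scintillation. Nonspecific binding defined with 1 μmol/l unlabeled osanetant. IC50 converted to Ki by Cheng-Prusoff and reported as pKi, averaged over measurements.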

[4] = iv, read-out: ID50 (iv), inhibition of blood pressure

SMILES	pA2 data for NK2 [1]	ID50 (iv), inhibition of blood pressure [2] [mg/kg]	ID50 (po), inhibition of blood pressure [2] [mg/kg]	pKi, binding potency to NK3-receptors [3]	Kb [1] [nM]	ED50 [2, 4] [mg/kg]	ED50 ([2]; po, read-out: ID50 (po), inhibition of blood pressure) [mg/kg]	Ki [3] [nM]
CN(C)C(=O)C1(N2CCCCC2)CCN(CC[C@H](CN(C)C(=O)c2cc(C#N)c3ccccc3c2)c2ccc(Cl)c(Cl)c2)CC1 [compound 11]	8.4	1.0554	10	7.9	–	–	–	–
CN(C)C(=O)C1(N2CCCCC2)CCN(CC[C@H](CN(C)C(=O)c2ccccc2)c2ccc(Cl)c(Cl)c2)CC1 [compound 1]	–	–	–	–	0.2	0.256	6.38	2.51
CN(C)C(=O)C1(N2CCCCC2)CCN(CC[C@H](CN(C)C(=O)c2cc(F)ccc2F)c2ccc(Cl)c(Cl)c2)CC1 [compound 15]	8.3	0.3732	–	–	–	–	–	–
CN(C)C(=O)C1(N2CCCCC2)CCN(CC[C@H](CN(C)C(=O)c2ccc(F)c(F)c2)c2ccc(Cl)c(Cl)c2)CC1 [compound 14]	8.2	0.5168	6.811	–	–	–	–	–
CN(C)C(=O)C1(N2CCCCC2)CCN(CC[C@H](CN(C)C(=O)c2ccc(O)cc2)c2ccc(Cl)c(Cl)c2)CC1 [compound 6, 1′-{(3S)-3-(3,4-dichlorophenyl)-4-[(4-hydroxybenzoyl)-(methyl)amino]butyl}-N,N-dimethyl-1,4′-bipiperidine-4′-carboxamide]	–	–	–	–	1.58	0.157	–	2
CN(C)C(=O)C1(N2CCCCC2)CCN(CCC(CN(C)C(=O)c2ccc(Cl)nc2)c2ccc(Cl)c(Cl)c2)CC1 (centres unmarked) [compound 18]	–	–	–	–	3.16	1.01	–	5.01
CN(C)C(=O)C1(N2CCCCC2)CCN(CC[C@H](CN(C)C(=O)C2CCCCC2)c2ccc(Cl)c(Cl)c2)CC1 [compound 3]	8.7	–	–	8.2	–	–	–	–
CN(C)C(=O)C1(N2CCCCC2)CCN(CCC(CN(C)C(=O)c2cccnc2)c2ccc(Cl)c(Cl)c2)CC1 (centres unmarked) [compound 19]	–	–	–	–	0.501	0.39	–	31.6
CN(C)C(=O)C1(N2CCCCC2)CCN(CC[C@H](CN(C)C(=O)c2ccc(F)cc2)c2ccc(Cl)c(Cl)c2)CC1 [compound 4]	8.6	0.7564	2.3313	8.2	–	–	–	–
CN(C)C(=O)C1(N2CCCCC2)CCN(CC[C@H](CN(C)C(=O)c2ccc(F)cc2F)c2ccc(Cl)c(Cl)c2)CC1 [compound 13]	8.3	0.5013	<10	7.4	–	–	–	–
